Assay results as given in the supplement of paper PMC10307832.

What was measured:
Experiment in all cases: relative viability (nuclei count vs DMSO), 5 days (fraction); higher = more cells survive
BEN = test system: BEN
In short: (§1)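 Relative viability equals treated-well nuclei counts divided by vehicle-well nuclei counts. Counts came from 4× images of lung cancer cell lines grown in 1536-well plates for 5 days after pin-tool dosing on the day after seeding. Dosing used one drug alone or a fixed anchor-drug dose plus five library-drug doses (not always all listed) in √10 steps, and values are medians of duplicate plates.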

NCI-H838 = test system: NCI-H838
In short: as §1

LC-2-ad = test system: LC-2-ad
In short: as §1

LK-2 = test system: LK-2
In short: as §1

NCI-H358 = test system: NCI-H358
In short: as §1

PC-3 [JPC-3] = test system: PC-3 [JPC-3]
In short: as §1

NCI-H1355 = test system: NCI-H1355
In short: as §1

SK-MES-1 = test system: SK-MES-1
In short: as §1

LU99A = test system: LU99A
In short: as §1

NCI-H650 = test system: NCI-H650
In short: as §1

NCI-H2342 = test system: NCI-H2342
In short: as §1

SMILES: COc1cc2nccc(Oc3ccc(NC(=O)Nc4cc(C)on4)c(Cl)c3)c2cc1OC [Tivozanib] + Cc1nc(Nc2ncc(C(=O)Nc3c(C)cccc3Cl)s2)cc(N2CCN(CCO)CC2)n1 [Dasatinib] (partner 0.075 µM)
- relative viability (BEN; first compound 0.005 µM): 0.254
- relative viability (BEN; first compound 0.01581 µM): 0.342
- relative viability (BEN; first compound 0.05 µM): 0.369
- relative viability (BEN; first compound 0.1581 µM): 0.225
- relative viability (BEN; first compound 0.5 µM): 0.25
- relative viability (NCI-H838; first compound 0.005 µM): 0.212
- relative viability (NCI-H838; first compound 0.01581 µM): 0.31
- relative viability (NCI-H838; first compound 0.05 µM): 0.292
- relative viability (NCI-H838; first compound 0.1581 µM): 0.307
- relative viability (NCI-H838; first compound 0.5 µM): 0.295
- relative viability (LC-2-ad; first compound 0.005 µM): 0.458
- relative viability (LC-2-ad; first compound 0.01581 µM): 0.504
- relative viability (LC-2-ad; first compound 0.05 µM): 0.615
- relative viability (LC-2-ad; first compound 0.1581 µM): 0.268
- relative viability (LC-2-ad; first compound 0.5 µM): 0.208
- relative viability (LK-2; first compound 0.005 µM): 0.226
- relative viability (LK-2; first compound 0.01581 µM): 0.29
- relative viability (LK-2; first compound 0.05 µM): 0.289
- relative viability (LK-2; first compound 0.1581 µM): 0.214
- relative viability (LK-2; first compound 0.5 µM): 0.23
- relative viability (NCI-H358; first compound 0.005 µM): 0.136
- relative viability (NCI-H358; first compound 0.01581 µM): 0.165
- relative viability (NCI-H358; first compound 0.05 µM): 0.174
- relative viability (NCI-H358; first compound 0.1581 µM): 0.141
- relative viability (NCI-H358; first compound 0.5 µM): 0.184
- relative viability (PC-3 [JPC-3]; first compound 0.005 µM): 0.934
- relative viability (PC-3 [JPC-3]; first compound 0.01581 µM): 1
- relative viability (PC-3 [JPC-3]; first compound 0.05 µM): 0.983
- relative viability (PC-3 [JPC-3]; first compound 0.1581 µM): 0.812
- relative viability (PC-3 [JPC-3]; first compound 0.5 µM): 0.951
- relative viability (NCI-H1355; first compound 0.005 µM): 0.672
- relative viability (NCI-H1355; first compound 0.01581 µM): 0.689
- relative viability (NCI-H1355; first compound 0.05 µM): 0.787
- relative viability (NCI-H1355; first compound 0.1581 µM): 0.413
- relative viability (NCI-H1355; first compound 0.5 µM): 0.691
- relative viability (SK-MES-1; first compound 0.005 µM): 0.288
- relative viability (SK-MES-1; first compound 0.01581 µM): 0.404
- relative viability (SK-MES-1; first compound 0.05 µM): 0.442
- relative viability (SK-MES-1; first compound 0.1581 µM): 0.332
- relative viability (SK-MES-1; first compound 0.5 µM): 0.416
- relative viability (LU99A; first compound 0.005 µM): 0.356
- relative viability (LU99A; first compound 0.01581 µM): 0.599
- relative viability (LU99A; first compound 0.05 µM): 0.656
- relative viability (LU99A; first compound 0.1581 µM): 0.489
- relative viability (LU99A; first compound 0.5 µM): 0.474
- relative viability (NCI-H650; first compound 0.005 µM): 0.344
- relative viability (NCI-H650; first compound 0.01581 µM): 0.509
- relative viability (NCI-H650; first compound 0.05 µM): 0.447
- relative viability (NCI-H650; first compound 0.1581 µM): 0.368
- relative viability (NCI-H650; first compound 0.5 µM): 0.387
- relative viability (NCI-H2342; first compound 0.005 µM): 0.301
- relative viability (NCI-H2342; first compound 0.01581 µM): 0.333
- relative viability (NCI-H2342; first compound 0.05 µM): 0.326
- relative viability (NCI-H2342; first compound 0.5 µM): 0.33
